Patent US20250161297A1, “COMPOSITIONS AND METHODS FOR INHIBITING FSP1” (THE REGENTS OF THE UNIVERSITY OF CALIFORNIA, priority 2022, published 2025)

Biological target: T1, recombinant purified FSP1 (Homo sapiens, UniProt Q9BRQ8)
T1 construct: made in house; host or cells: E. coli LOBSTR-BL21 (DE3)
T1 sequence (Q9BRQ8 1-373): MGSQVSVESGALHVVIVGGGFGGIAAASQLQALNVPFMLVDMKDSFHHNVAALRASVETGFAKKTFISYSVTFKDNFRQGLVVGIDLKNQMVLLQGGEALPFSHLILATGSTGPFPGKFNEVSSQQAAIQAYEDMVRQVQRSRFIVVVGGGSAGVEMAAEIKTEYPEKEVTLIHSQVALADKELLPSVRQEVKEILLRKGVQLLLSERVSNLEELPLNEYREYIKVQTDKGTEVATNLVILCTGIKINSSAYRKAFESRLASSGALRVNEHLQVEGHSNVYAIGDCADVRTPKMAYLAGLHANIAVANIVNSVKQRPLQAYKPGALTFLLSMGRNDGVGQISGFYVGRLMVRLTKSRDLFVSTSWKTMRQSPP
Assay: FSP1 enzyme kinetics with NADH, CoQ-coumarin and CoQ1
Format: biochemical
Experimental: FSP1 Kinetics (NADH): To measure FSP1 kinetics, FSEN1 was dissolved and diluted in DMSO, and recombinant purified FSP1 was diluted in PBS. 0.5 μL FSEN1 and 12.5 μL FSP1 were mixed and incubated for 30 minutes in a NBS polystyrene 384-well plate (Corning Ref: 3640) at RT. Vehicle control wells included 0.5 μL DMSO and were absent of any FSEN1. NADH (Millipore Cat: 481913) was then dissolved and diluted in PBS and added to the plate wells. CoQ-Coumarin (Cayman Item: 29554) was dissolved in DMSO, diluted in PBS, and added to the plate wells to start the reaction. Final well volume was 25 μL, and final concentrations were 25 nM FSP1, 10UM CoQ-Coumarin, 1-50 μM NADH, and 50-500 nM FSEN1. […] Reduced CoQ-Coumarin fluorescence (Ex: 405 nm, Em: 475 nm) was measured as read-out of enzymatic product formation on a kinetic cycle with an interval time of 20 seconds at RT. […] Raw data from 3 biological replicates were then plotted and initial slopes were calculated using a linear regression in prism (GraphPad).
FSP1 Kinetics (CoQ-Coumarin): To measure FSP1 kinetics, FSEN1 was dissolved and diluted in DMSO, and recombinant purified FSP1 was diluted in PBS. […] Reduced CoQ-Coumarin fluorescence (Ex: 405 nm, Em: 475 nm) was measured as read-out of enzymatic product formation on a kinetic cycle with an interval time of 15 seconds at RT. […]

change in Kcat (as FSEN1 concentrations increased): decrease in Kcat values | mechanism of FSP1 inhibition (increasing NADH and CoQ-coumarin, Lineweaver-Burke plots parallel): uncompetitive inhibitor
Compound: COc1ccc(N2CCN(Cc3cn4c(-c5ccc(Br)cc5)nnc4s3)CC2)cc1 [FSEN1]
